Source: US6395732B1, “Pyrimidin-aminomethyl-pyridine derivatives, their preparation and their use in the control of helicobacter bacteria” (BYK Gulden Lomberg Chemische Fabrik GmbH, priority 1998, dated 2002)

Experiments:
Helicobacter pylori = assay: Activity against Helicobacter pylori, agar method of Iwahi et al. (MIC 50); format: cell-based; settings: Helicobacter pylori, 96 h; Columbia agar (Oxoid), growth period of 4 days; approximate values; read-out: Appr. MIC 50
Excerpt: The compounds of the formula I were investigated with respect to their activity against Helicobacter pylori following the method described by Tomoyuki Iwahi et al. (Antimicrobial Agents and Chemotherapy, 1991, 490-496) using Columbia agar (Oxoid) and a growth period of 4 days.

| Compound | melting point | MIC50 (Helicobacter pylori) [µg/mL] |
| --- | --- | --- |
| Cc1nc(C)c(Cl)c(NCc2nccc(SCCCSCC3CN(C)C(=O)O3)c2C)n1 (stereo not drawn) [Compound 5, 5-(3-{2-[(5-Chloro-2,6-dimethylpyrimidin-4-ylamino)methyl]-3-methylpyridin-4-yl-sulfanyl}propylsulfanylmethyl)-3-methyloxazolidin-2-one] | 121 °C | ≤ 0.1 |
| Cc1nc(C)c(Cl)c(NCc2nccc(SCCOCCSCc3cccnc3)c2C)n1 [Compound 52, (5-Chloro-2,6-dimethyl-pyrimidin-4-yl)-(3-methyl-4-{2-[2-(pyridin-3-ylmethylsulfanyl)-ethoxy]-ethylsulfanyl}-pyridin-2-ylmethyl)-amine] | 90 to 92 °C | ≤ 0.1 |
| Cc1c(OCCSCc2ccncc2)ccnc1CNc1ncncc1Cl [Compound 54, (5-Chloro-pyrimidin-4-yl)-{3-methyl-4-[2-(pyridin-4-ylmethylsulfanyl)-ethoxy)-pyridine-2-ylmethyl}-amine] | 119 to 121 °C | ≤ 0.1 |
| Cc1nc(C)c(Cl)c(NCc2nccc(OCCSCCn3c([N+](=O)[O-])cnc3C)c2C)n1 [Compound 32, (5-Chloro-2,6-dimethyl-pyrimidin-4-yl)-(3-methyl-4-{2-[2-(2-methyl-5-nitro-imidazol-1-yl)-ethylsulfanyl]-ethoxy}-pyridin-2-ylmethyl)-amine] | 139 to 144 °C | ≤ 0.1 |
| Cc1nc(C)c(Cl)c(NCc2nccc(SCCOCCOCC(F)(F)F)c2C)n1.Cl [Compound 4, (5-Chloro-2,6-dimethylpyrimidin-4-yl)-(3-methyl-4-{2-[2-(2,2,2-trifluoroethoxy)ethoxy]ethylsulfanyl}pyridin-2-ylmethyl)amine hydrochloride] | 235 to 241 °C (dec.) | ≤ 0.1 |
| Cc1nc(C)c(Cl)c(NCc2nccc(OCCCSCc3ccncc3)c2C)n1 [Compound 34, (5-Chloro-2,6-dimethyl-pyrimidin-4-yl)-{3-methyl-4-[3-(pyridin-4-ylmethylsulfanyl)-propoxy]-pyridin-2-ylmethyl}-amine] | 111 to 113 °C | ≤ 0.1 |
| Cc1c(SCc2ccco2)ccnc1CNc1ncncc1Cl [Compound 59, (5-Chloro-pyrimidin-4-yl)-[4-(furan-2-ylmethylsulfanyl)-3-methyl-pyridin-2-ylmethyl]-amine] | 169 to 170 °C | ≤ 0.1 |
| Cc1nc(C)c(Cl)c(NCc2nccc(SCCCCSCCO)c2C)n1 [Compound 37, 2-(4-{2-[(5-Chloro-2,6-dimethyl-pyrimidin-4-ylamino)-methyl]-3-methyl-pyridin-4-ylsulfanyl}-butylsulfanyl)-ethanol] | 142 to 143 °C | ≤ 0.1 |
| Cc1nc(C)c(Cl)c(NCc2nccc(OCCOCCSCc3ccncc3)c2C)n1 [Compound 29, (5-Chloro-2,6-dimethyl-pyrimidin-4-yl)-(3-methyl-4-{2-[2-(pyridin-4-ylmethylsulfanyl)-ethoxy]-ethoxy}-pyridin-2-ylmethyl)-amine] | 103 to 105 °C | ≤ 0.1 |
| Cc1nc(C)c(Cl)c(NCc2nccc(SCCCN3CCN(CC4CN(Cc5ccncc5)C(=O)O4)CC3)c2C)n1 (stereo not drawn) [Compound 38, 5-[4-(3-{2-[(5-Chloro-2,6-dimethyl-pyrimidin-4-ylamino)-methyl]-3-methyl-pyridin-4-ylsulfanyl}-propyl)-piperazin-1-ylmethyl]-3-pyridin-4-ylmethyl-oxazolidin-2-one] | 123 to 126 °C | ≤ 0.1 |
| CN(CCO)c1ccnc(CNc2ncncc2Cl)c1Cl [Compound 55, 2-({3-Chloro-2-[(5-chloro-pyrimidin-4-ylamino)-methyl]-pyridin-4-yl}-methyl-amino)-ethanol] | 158 to 161 °C | ≤ 0.1 |
| Cc1nc(C)c(Cl)c(NCc2nccc(SCCCN3CCN(Cc4ccncc4)CC3)c2C)n1.Cl [Compound 23, (5-Chloro-2,6-dimethylpyrimidin-4-yl)-{3-methyl-4-[3-(4-pyridin-4-ylmethylpiperazin-1-yl)propylsulfanyl]pyridin-2-ylmethyl}amine hydrochloride] | 166 to 168 °C | ≤ 0.1 |
| Cc1nc(C)c(Cl)c(NCc2nccc(OCCCSCCn3c([N+](=O)[O-])cnc3C)c2C)n1 [Compound 33, (5-Chloro-2,6-dimethyl-pyrimidin-4-yl)-(3-methyl-4-{3-[2-(2-methyl-5-nitro-imidazol-1-yl)-ethylsulfanyl]-propoxy}-pyridin-2-ylmethyl)-amine] | 169 to 171 °C | ≤ 0.1 |
| Cc1nc(C)c(Cl)c(NCc2nccc(SCCOCCn3c([N+](=O)[O-])cnc3C)c2C)n1 [Compound 57, (5-Chloro-2,6-dimethyl-pyrimidin-4-yl)-(3-methyl-4-{2-[2-(2-methyl-5-nitro-imidazol-1-yl)-ethoxy]-ethylsulfanyl}-pyridin-2-ylmethyl)-amine] | 160 to 163 °C | ≤ 0.1 |
| Cc1c(OCCCSCCn2c([N+](=O)[O-])cnc2C)ccnc1CNc1ncncc1Cl [Compound 56, (5-Chloro-pyrimidin-4-yl)-(3-methyl-4-{3-[2-(2-methyl-5-nitro-imidazol-1-yl)-ethylsulfanyl]-propoxy}-pyridin-2-ylmethyl)-amine] | 143 to 146 °C | ≤ 0.1 |
| Cc1nc(C)c(Cl)c(NCc2nccc(SCCCCSCc3ccncc3)c2C)n1 [Compound 20, (5-Chloro-2,6-dimethylpyrimidin-4-yl)-{3-methyl-4-[4-(pyridin-4-ylmethylsulfanyl)butylsulfanyl]pyridin-2-ylmethyl}amine] | 104 to 106 °C | ≤ 0.1 |
| Cc1nc(C)c(Cl)c(NCc2nccc(SCc3ccco3)c2C)n1 [Compound 60, (5-Chloro-2,6-dimethyl-pyrimidin-4-yl)-[4-(furan-2-ylmethylsulfanyl)-3-methyl-pyridin-2-ylmethyl]-amine] | 159 to 160 °C | ≤ 0.1 |
| Cc1nc(C)c(Cl)c(NCc2nccc(SCCCSCc3ccncc3)c2C)n1 [Compound 24, (5-Chloro-2,6-dimethylpyrimidin-4-yl)-{3-methyl-4-[3-(pyridin-4-ylmethylsulfanyl)propylsulfanyl]pyridin-2-ylmethyl}amine] | 124 to 125 °C | ≤ 0.1 |
| Cc1nc(C)c(Cl)c(NCc2nccc(OCCOCCSCCO)c2C)n1 [Compound 35, 2-[2-(2-{2-[(5-Chloro-2,6-dimethyl-pyrimidin-4-ylamino)-methyl]-3-methyl-pyridin-4-yloxy}-ethoxy)-ethylsulfanyl]-ethanol] | 114 to 116 °C | ≤ 0.1 |
| Cc1nc(C)c(Cl)c(NCc2nccc(OCCSCc3ccncc3)c2C)n1 [Compound 30, (5-Chloro-2,6-dimethyl-pyrimidin-4-yl)-{3-methyl-4-[2-(pyridin-4-ylmethylsulfanyl)-ethoxy]-pyridin-2-ylmethyl}-amine] | 140 to 142 °C | ≤ 0.1 |
| Cc1nc(C)c(Cl)c(NCc2nccc(SCCOCCSCc3ccccn3)c2C)n1 [Compound 53, (5-Chloro-2,6-dimethyl-pyrimidin-4-yl)-(3-methyl-4-{2-[2-(pyridin-2-ylmethylsulfanyl)-ethoxy]ethylsulfanyl}-pyridin-2-ylmethyl)-amine] | 70 to 72 °C | ≤ 0.1 |
